Patent US5844001A, “Combination platinum chemotherapeutic/antiestrogen therapy for human cancers” (Research Development Foundation, priority 1994, dated 1998)
Like-named read-outs stand apart in the source and are kept apart here.

Experiments:
[1] = tested on: UM-SCC-10B cells; assay: Colony forming assay, parental UM-SCC-10B; type: cell-based, human
Experimental: (§1) The UM-SCC-10B and UM-SCC-5 cell lines were derived from human squamous cell carcinomas of the in head and neck region. […] The sensitivity of the UM-SCC-10B and UM-SCC-5 cell lines and their cDDP-resistant variants to cDDP, TAM and the combination of both agents was tested by colony forming assay. Single-cell suspension were plated into 60 mm tissue culture dishes (Corning) at 300 cells per dish. […] Colonies were fixed with methanol, stained with Giemsa stain for 60 minutes, and counted manually.
(§2) Median effect analysis was used to assess the interaction between cDDP and TAM using a schedule of one hour exposure to cDDP and continuous exposure to TAM. After seeding the cells into 60 mm tissue culture dishes at 300 cells per dish in fresh medium and allowing 5 hours for them to attach, TAM was added. For the combined treatment, cDDP was added to the dishes 24 hours after seeding the cells. […] After incubation the dishes were washed twice with phosphate-buffered saline and fresh medium containing the appropriate concentration of TAM was added. In synergy experiments, dose-response curves for the single agents were initially generated. The extend of the combined treatment was then analyzed by the isobole method for a combination of cDDP and TAM from the equation

[2] = tested on: UM-SCC-10B head and neck carcinoma cells; assay: Development of cisplatin resistance with or without tamoxifen, UM-SCC-10B (clonogenic assay); type: cell-based, human; settings: for effect on development of cisplatin resistance: tamoxifen present during selection, in words
Experimental: (§3) The UM-SCC-10B and UM-SCC-5 cell lines were derived from human squamous cell carcinomas of the in head and neck region. Cells were cultured at 37° C. in humidified 5% CO2 in 150 cm^2 flasks (Corning, Corning, N.Y.) with RPMI 1640 medium (Mediatech Inc., Herndon, Va.) containing 10% fetal bovine serum (Gemini Bioproducts Inc., Calabasas, Calif.), 2 mM L-glutamine, 100 units/ml of penicillin and 100 μg/ml of streptomycin sulfate. The sensitivity of the UM-SCC-10B and UM-SCC-5 cell lines and their cDDP-resistant variants to cDDP, TAM and the combination of both agents was tested by colony forming assay. Single-cell suspension were plated into 60 mm tissue culture dishes (Corning) at 300 cells per dish. Following drug exposure, the cultures were washed twice with PBS to remove cDDP, 5 ml of fresh medium was added, and they were incubated for 13-15 days to allow formation of colonies. Colonies were fixed with methanol, stained with Giemsa stain for 60 minutes, and counted manually.
(§4) Cells were cultured in drug-free medium for two weeks prior to being tested for drug sensitivity.

[3] = tested on: UM-SCC-5 head and neck carcinoma cells; assay: Development of cisplatin resistance with or without tamoxifen, UM-SCC-5 (clonogenic assay); type: cell-based, human
Experimental: as §3, §4

[4] = tested on: T-289 melanoma cells; assay: Development of DDP resistance with or without TAM, T-289 (colony formation); type: cell-based, human
[5] = tested on: UM-SCC-5 cells; assay: Colony forming assay, parental UM-SCC-5; type: cell-based, human
Experimental: as §1, §2

[6] = tested on: melanoma; assay: Clinical trial: tumor response to DDP alone, then TAM/DDP after DDP resistance; type: in vivo, human (patients)
Text: A complete response was defined as the complete disappearance of all evidence of disease for at least 4 weeks. A partial response was a decrease in the mean diameter of the target lesion by 50% or more lasting at least 4 weeks. A mixed response was a decrease in the diameter of some target lesions of 50% or more while others remained stable or increased in size. A stable disease was defined as a <50% decrease or <25% increase in the size of target lesions for at least 2 months without the growth or appearance of other lesions. A progressive disease was defined as an increase in the size of target lesions by 25% or more.
Patients were retreated every 3 weeks. […] Subsequent patients received an ondansetron-based regimen.

[7] = human, in vivo
Text: (§5) Entry requirements included histologically documented melanoma, measurable disease, signed informed consent, and no anti-tumor therapy during the previous 4 weeks. Patients were required to have normal hematologic and renal function, an ECOG performance status of 0-2 and an estimated survival of at least 3 months. Patients with a previous history of deep venous thrombosis or pulmonary embolism were excluded.
(§6) Pre-treatment hydration consisted of 1 liter of 5% dextrose/0.45%saline containing 20 mEq of potassium chloride and 2 g magnesium sulfate administered over 4 hours. […] Patients were retreated every 3 weeks. On cycles where TAM was administered, 40 mg p.o. four doses per day were given on day 1 followed by 20 mg p.o. daily thereafter. The initial 7 patients were treated with a combination of lorazepam, metaclopramide, benadryl and dexamethasone to control nausea and vomiting. Subsequent patients received an ondansetron-based regimen.

[8] = Steady-state plasma concentration of TAM; type: in vivo, human (patients); settings: predicted from in vitro data
Experimental: The design of the study of Example 1 itself was biased against response and the response rate in other settings would be higher. […] Chronic administration of TAM at 10 mg p.o. twice a day produces steady-state plasma concentrations in the range of 0.29 μM. However, the in vitro data predicts that plasma concentrations of more than 0.5 μM will be necessary in DDP-resistant patients.

[9] = tested on: cell lines of human origin; assay: Synergy of TAM and DDP: timing and mechanism observations; type: cell-based
[10] = Toxicities with DDP or DDP/TAM treatment (clinical trial); settings: in words
Text: as §5, §6

[11] = tested on: melanoma; settings: 203 treated melanoma patients; cited from earlier work
[12] = read-out: IC50, one hour exposure to cisplatin
[13] = number of patients, DDP n=24, TAM/DDP n=20
[14] = Homo sapiens, read-out: IC50, continuous tamoxifen exposure

**Q.** Which IC50 [1, 12] does the source give for `N.N.[Cl][Pt][Cl]` [cisplatin, cis-diamminedichloroplatinum (II)] here?
**A.** 6.5 ± 0.6 µM

**Q.** What about the IC50 ([2]; UM-SCC-10B selected in cisplatin, one hour cisplatin exposure, read-out: IC50 after the fifteenth selection) of the same compound?
**A.** 40.1 ± 1.2 µM

**Q.** And the IC50 ([3]; UM-SCC-5 selected in cisplatin, one hour cisplatin exposure, read-out: IC50 after the fifteenth selection)?
**A.** 20.1 ± 1.2 µM

**Q.** What about the “time at which DDP resistance became apparent” value ([4]; T-289 selection) of the same compound?
**A.** 200 days

**Q.** What about the IC50 [5, 12] of the same compound?
**A.** 7.2 ± 1.5 µM

**Q.** And the “duration of complete response” value ([6]; DDP alone)?
**A.** more than 15 months

**Q.** And the “duration of partial response (stable off treatment)” value ([6]; DDP alone, one patient)?
**A.** ≥ 6 months

**Q.** And the “time to progression of patient with partial response” value ([6]; DDP alone, the other patient)?
**A.** 4 months

**Q.** And the “Mixed Response” value ([6]; number of patients)?
**A.** 0 patients

**Q.** What about the “Progressive Disease” value ([6]; number of patients) of the same compound?
**A.** 19 patients

**Q.** What about the “Stable Disease” value ([6]; number of patients) of the same compound?
**A.** 2 patients

**Q.** And the “Complete Response” value [6, 13]?
**A.** 1 patients

**Q.** What about the “Partial Response” value [6, 13] of the same compound?
**A.** 2 patients

**Q.** What about the “Complete Response” value ([6]; number of patients, DDP n=24, TAM/DDP n=20, listed as DDP) of the same compound?
**A.** One

**Q.** What about the “Progressive Disease” value ([6]; number of patients, listed as DDP) of the same compound?
**A.** 17 patients

**Q.** What about the “Complete Response (%)” value ([6]; percent of patients) of the same compound?
**A.** 4%

**Q.** And the “Partial Response (%)” value ([6]; percent of patients)?
**A.** 8%

**Q.** For `Cc1nccn1CC1CCc2c(c3ccccc3n2C)C1=O` (centres unmarked) [ondonsetron, ondansetron], which nausea and vomiting [7] is on record?
**A.** markedly reduced nausea and vomiting

**Q.** Which results are given for `CC/C(=C(\c1ccccc1)c1ccc(OCCN(C)C)cc1)c1ccccc1` [tamoxifen]?
**A.** IC50 [1, 14]: 3.56 ± 0.41 µM; plasma concentration predicted necessary in DDP-resistant patients [8]: more than 0.5 μM; synergy with DDP when TAM is added after DDP ([9]; TAM added up to 48 hours after end of 1 hour DDP exposure): can produce synergy with DDP; effect of tamoxifen on known mechanisms of cisplatin resistance ([9]; drug uptake, glutathione or metallothionein levels, DNA intrastrand adduct formation or repair): not due to an effect of tamoxifen on the known mechanisms of cisplatin resistance; reduction of slope of regression line by tamoxifen ([2]; UM-SCC-10B): more than 40%; effect on development of cisplatin resistance ([2]; UM-SCC-10B): delayed the emergence of cisplatin resistance significantly; effect on development of cisplatin resistance ([2]; UM-SCC-10B, listed as TAM): delay the development of DDP resistance; effect on slope for emergence of cisplatin resistance ([3]; UM-SCC-5, tamoxifen present during selection, in words): no effect; effect on development of DDP resistance ([4]; T-289, TAM given concurrently, in words): delay the development of DDP resistance; nephrotoxicity [10]: uncommon and unaffected by the administration of TAM; toxicity on addition of TAM to single agent DDP [10]: No increased toxicity; nausea and vomiting ([10]; during hospitalization for ondansetron): did not increase nausea or vomiting; response rate, single agent TAM therapy [11]: 6%; IC50 [5, 14]: 3.22 ± 0.54 µM
